According to the supplement of paper PMC10307832:

Columns and labels:
Test in all cases: relative viability (nuclei count vs DMSO), 5 days (fraction); higher = more cells survive
Metformin = compound: CN(C)C(=N)NC(=N)N [Metformin]
Summary of the method: (§1)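 After an overnight hold at 37 °C, lung cancer cell lines in 1536-well plates were pinned with five library-drug doses (not always all listed), each √10 from the next, on vehicle-anchored plates. The cells stayed 5 days without fresh medium, then a one-step fix, permeabilisation and Hoechst stain preceded 4× imaging and MetaXpress nuclear counts. A plate passed only with control CV under 25% and at least one doubling. Viability is the median, over plates, of treated-well nuclei relative to vehicle-well nuclei.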

Apatinib = compound: N#CC1(c2ccc(NC(=O)c3cccnc3NCc3ccncc3)cc2)CCCC1 [Apatinib]
Summary of the method: as §1

Metformin + Luminespib = compound: CN(C)C(=N)NC(=N)N [Metformin] + CCNC(=O)c1noc(-c2cc(C(C)C)c(O)cc2O)c1-c1ccc(CN2CCOCC2)cc1 [Luminespib] (partner 0.01 µM)
Summary of the method: (§2)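 Lung cancer cell lines were pin-tool dosed in 1536-well plates on the day after seeding, with either a lone drug or a fixed anchor-drug dose plus five library-drug doses (not always all listed) in √10 steps. Nuclei were counted on 4× images after 5 days. Relative viability is the ratio of treated-well to vehicle-well nuclei counts, with each value a median of duplicate plates.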

Metformin + Foretinib = compound: CN(C)C(=N)NC(=N)N [Metformin] + COc1cc2c(Oc3ccc(NC(=O)C4(C(=O)Nc5ccc(F)cc5)CC4)cc3F)ccnc2cc1OCCCN1CCOCC1 [Foretinib] (partner 0.25 µM)
Summary of the method: as §2

Metformin + OSI-027 = compound: CN(C)C(=N)NC(=N)N [Metformin] + COc1cccc2cc(-c3nc([C@H]4CC[C@H](C(=O)O)CC4)n4ncnc(N)c34)[nH]c12 [OSI-027] (partner 0.5 µM)
Summary of the method: as §2

Metformin + Tozasertib = compound: CN(C)C(=N)NC(=N)N [Metformin] + Cc1cc(Nc2cc(N3CCN(C)CC3)nc(Sc3ccc(NC(=O)C4CC4)cc3)n2)n[nH]1 [Tozasertib] (partner 0.1 µM)
Summary of the method: as §2

Metformin + Dasatinib = compound: CN(C)C(=N)NC(=N)N [Metformin] + Cc1nc(Nc2ncc(C(=O)Nc3c(C)cccc3Cl)s2)cc(N2CCN(CCO)CC2)n1 [Dasatinib] (partner 0.075 µM)
Summary of the method: as §2

Metformin + Phenformin = compound: CN(C)C(=N)NC(=N)N [Metformin] + N=C(N)NC(=N)NCCc1ccccc1 [Phenformin] (partner 250 µM)
Summary of the method: as §2

Apatinib + Luminespib = compound: N#CC1(c2ccc(NC(=O)c3cccnc3NCc3ccncc3)cc2)CCCC1 [Apatinib] + CCNC(=O)c1noc(-c2cc(C(C)C)c(O)cc2O)c1-c1ccc(CN2CCOCC2)cc1 [Luminespib] (partner 0.01 µM)
Summary of the method: as §2

Apatinib + Foretinib = compound: N#CC1(c2ccc(NC(=O)c3cccnc3NCc3ccncc3)cc2)CCCC1 [Apatinib] + COc1cc2c(Oc3ccc(NC(=O)C4(C(=O)Nc5ccc(F)cc5)CC4)cc3F)ccnc2cc1OCCCN1CCOCC1 [Foretinib] (partner 0.25 µM)
Summary of the method: as §2

Apatinib + OSI-027 = compound: N#CC1(c2ccc(NC(=O)c3cccnc3NCc3ccncc3)cc2)CCCC1 [Apatinib] + COc1cccc2cc(-c3nc([C@H]4CC[C@H](C(=O)O)CC4)n4ncnc(N)c34)[nH]c12 [OSI-027] (partner 0.5 µM)
Summary of the method: as §2

Apatinib + Tozasertib = compound: N#CC1(c2ccc(NC(=O)c3cccnc3NCc3ccncc3)cc2)CCCC1 [Apatinib] + Cc1cc(Nc2cc(N3CCN(C)CC3)nc(Sc3ccc(NC(=O)C4CC4)cc3)n2)n[nH]1 [Tozasertib] (partner 0.1 µM)
Summary of the method: as §2

Apatinib + Dasatinib = compound: N#CC1(c2ccc(NC(=O)c3cccnc3NCc3ccncc3)cc2)CCCC1 [Apatinib] + Cc1nc(Nc2ncc(C(=O)Nc3c(C)cccc3Cl)s2)cc(N2CCN(CCO)CC2)n1 [Dasatinib] (partner 0.075 µM)
Summary of the method: as §2

Apatinib + Phenformin = compound: N#CC1(c2ccc(NC(=O)c3cccnc3NCc3ccncc3)cc2)CCCC1 [Apatinib] + N=C(N)NC(=N)NCCc1ccccc1 [Phenformin] (partner 250 µM)
Summary of the method: as §2

NCI-H1623
relative viability (Metformin; 10 µM): 0.985 | relative viability (Metformin; 31.62 µM): 0.982 | relative viability (Metformin; 100 µM): 1.08 | relative viability (Metformin; 316.23 µM): 0.909 | relative viability (Metformin; 1000 µM): 1.03 | relative viability (Apatinib; 0.08 µM): 1 | relative viability (Apatinib; 0.253 µM): 0.924 | relative viability (Apatinib; 0.8 µM): 0.966 | relative viability (Apatinib; 2.53 µM): 0.946 | relative viability (Apatinib; 8 µM): 0.593 | relative viability (Metformin + Luminespib; first compound 10 µM): 0.475 | relative viability (Metformin + Luminespib; first compound 31.62 µM): 0.429 | relative viability (Metformin + Luminespib; first compound 100 µM): 0.596 | relative viability (Metformin + Luminespib; first compound 316.23 µM): 0.487 | relative viability (Metformin + Luminespib; first compound 1000 µM): 0.755 | relative viability (Metformin + Foretinib; first compound 10 µM): 0.799 | relative viability (Metformin + Foretinib; first compound 31.62 µM): 0.811 | relative viability (Metformin + Foretinib; first compound 100 µM): 1.02 | relative viability (Metformin + Foretinib; first compound 316.23 µM): 1.01 | relative viability (Metformin + Foretinib; first compound 1000 µM): 0.864 | relative viability (Metformin + OSI-027; first compound 10 µM): 0.449 | relative viability (Metformin + OSI-027; first compound 31.62 µM): 0.469 | relative viability (Metformin + OSI-027; first compound 100 µM): 0.463 | relative viability (Metformin + OSI-027; first compound 316.23 µM): 0.539 | relative viability (Metformin + OSI-027; first compound 1000 µM): 0.478 | relative viability (Metformin + Tozasertib; first compound 10 µM): 0.363 | relative viability (Metformin + Tozasertib; first compound 31.62 µM): 0.413 | relative viability (Metformin + Tozasertib; first compound 100 µM): 0.452 | relative viability (Metformin + Tozasertib; first compound 316.23 µM): 0.337 | relative viability (Metformin + Tozasertib; first compound 1000 µM): 0.452 | relative viability (Metformin + Dasatinib; first compound 10 µM): 0.376 | relative viability (Metformin + Dasatinib; first compound 31.62 µM): 0.518 | relative viability (Metformin + Dasatinib; first compound 100 µM): 0.511 | relative viability (Metformin + Dasatinib; first compound 316.23 µM): 0.627 | relative viability (Metformin + Dasatinib; first compound 1000 µM): 0.478 | relative viability (Metformin + Phenformin; first compound 10 µM): 0.556 | relative viability (Metformin + Phenformin; first compound 31.62 µM): 0.553 | relative viability (Metformin + Phenformin; first compound 100 µM): 0.569 | relative viability (Metformin + Phenformin; first compound 316.23 µM): 0.577 | relative viability (Metformin + Phenformin; first compound 1000 µM): 0.371 | relative viability (Apatinib + Luminespib; first compound 0.08 µM): 0.402 | relative viability (Apatinib + Luminespib; first compound 0.253 µM): 0.429 | relative viability (Apatinib + Luminespib; first compound 0.8 µM): 0.465 | relative viability (Apatinib + Luminespib; first compound 2.53 µM): 0.461 | relative viability (Apatinib + Luminespib; first compound 8 µM): 0.476 | relative viability (Apatinib + Foretinib; first compound 0.08 µM): 0.912 | relative viability (Apatinib + Foretinib; first compound 0.253 µM): 0.826 | relative viability (Apatinib + Foretinib; first compound 0.8 µM): 0.844 | relative viability (Apatinib + Foretinib; first compound 2.53 µM): 0.802 | relative viability (Apatinib + Foretinib; first compound 8 µM): 0.777 | relative viability (Apatinib + OSI-027; first compound 0.08 µM): 0.443 | relative viability (Apatinib + OSI-027; first compound 0.253 µM): 0.423 | relative viability (Apatinib + OSI-027; first compound 0.8 µM): 0.404 | relative viability (Apatinib + OSI-027; first compound 2.53 µM): 0.351 | relative viability (Apatinib + OSI-027; first compound 8 µM): 0.385 | relative viability (Apatinib + Tozasertib; first compound 0.08 µM): 0.45 | relative viability (Apatinib + Tozasertib; first compound 0.253 µM): 0.454 | relative viability (Apatinib + Tozasertib; first compound 0.8 µM): 0.451 | relative viability (Apatinib + Tozasertib; first compound 2.53 µM): 0.417 | relative viability (Apatinib + Tozasertib; first compound 8 µM): 0.407 | relative viability (Apatinib + Dasatinib; first compound 0.08 µM): 0.438 | relative viability (Apatinib + Dasatinib; first compound 0.253 µM): 0.598 | relative viability (Apatinib + Dasatinib; first compound 0.8 µM): 0.493 | relative viability (Apatinib + Dasatinib; first compound 2.53 µM): 0.545 | relative viability (Apatinib + Dasatinib; first compound 8 µM): 0.595 | relative viability (Apatinib + Phenformin; first compound 0.08 µM): 0.601 | relative viability (Apatinib + Phenformin; first compound 0.253 µM): 0.624 | relative viability (Apatinib + Phenformin; first compound 0.8 µM): 0.636 | relative viability (Apatinib + Phenformin; first compound 2.53 µM): 0.511 | relative viability (Apatinib + Phenformin; first compound 8 µM): 0.616
